Laboratory results reported in patent publication US20130137760A1, “GAMBOGIC AMINE, A SELECTIVE TRKA AGONIST WITH NEUROPROTECTIVE ACTIVITY” (EMORY UNIVERSITY, priority 2007, published 2013).

Experiments:
hippocampal neurons = assay: Glutamate-triggered neuronal cell death in hippocampal neurons; format: cell-based; settings: in vitro
Procedure: To examine whether test compounds can promote neuronal survival, hippocampal neurons can be prepared, and the primary neurons pre-treated with various test compounds for a period of time, for example, 30 min, followed by 50 μM glutamate treatment for a period of time, for example, 16 h.
TrkA is highly expressed in hippocampal neurons (Culmsee et al., 2002; Kume et al., 2000; Zhang et al., 1993). […] To examine whether these compounds can promote neuronal survival, one can prepare hippocampal neurons and pre-treat the primary neurons with various gambogic amine derivatives for 30 min, followed by 50 μM glutamate treatment for 16 h.

[1] = test system: T17 cells (TrkA stably transfected SN56 cells); assay: Cell-based apoptotic assay: protection of TrkA-expressing T17 cells from staurosporine-initiated apoptosis, MR(DEVD)2 caspase-3 dye; set-up: species or system murine; settings: 0.5 μM pre-incubation, then 1 μM STS for 9 h; compared with NGF
From the text: In order to identify small molecules that mimic NGF and activate TrkA, we developed a cell-based apoptotic assay using a cell permeable fluorescent dye MR([…])2, which turns red upon caspase-3 cleavage in apoptotic cells. We utilized a murine cell line T17, which was derived from basal forebrain SN56 cells. T17 cells are TrkA stably transfected SN56 cells. The candidates selectively protecting T17 but not SN56 cells from the first round screen can then be subjected to neurite outgrowth assay for the secondary screen. The positive compounds can be analyzed for TrkA tyrosine phosphorylation, Akt and MAP kinases signaling cascade activation.
T17 cells can be cultured in 96-well plates and preincubated with 10 μM compounds for 30 min, followed by 1 μM staurosporine (STS) treatment for 9 h. MR(DEVD)2 can be introduced to the cells 1 h before examination under fluorescent microscope. The apoptotic cells are red, while live cells have no signal. […] Using the caspase-3-activated fluorescent dye as a visual assay, one can screen the gambogic amine compounds.
To compare the apoptosis inhibitory activity of various compounds, one can pre-incubate gambogic amines derivatives (0.5 μM) with T17 and SN56 cells, followed by 1 μM STS for 9 h. Quantitative analysis of the apoptosis inhibitory activities can determine whether the compounds protect SN56 cells from apoptosis.
T17 cells can be seeded in a 96-well plate at 10,000 cells/well in 100 μl complete medium. Cells can be incubated overnight, followed by 30 min pretreatment with 10 μM compounds in DMSO (10 mM stock concentration from The Spectrum Collection library). The cells can then be treated with 1 μM Staurosporine for 9 h. One h before the termination of the experiment, 10 μM MR(DEVD)2, a cell permeable caspase-3-activated fluorescent dye can be introduced. Cells can be fixed with 4% paraformaldehyde for 15 min. Cells can then be washed with PBS and incubated with 1 μg/ml of Hoechst 33342 for 10 min. Cover slides can then be washed with PBS, mounted, and examined using a fluorescence microscope.

`CC(C)=CCC[C@]1(C)C=Cc2c(O)c3c(c(CC=C(C)C)c2O1)O[C@]12C(=C[C@@H]4CC1C(C)(C)O[C@@]2(C/C=C(/C)C(N)=O)C4=O)C3=O` [gambogic amide] was tested, and the “protection of hippocampal neurons from glutamate-triggered neuronal cell death” value (hippocampal neurons) was “potent neurotrophic effects” and the “apoptosis inhibitory activity in T17 cells” value [1] was “strongly suppress apoptosis in T17 cells with protective activities even stronger than NGF”.
